Laboratory results from patent publication US9302999B2, “Substituted triazoles as herbicides” (E. I. DU PONT DE NEMOURS AND COMPANY, priority 2012, dated 2016).

How the values were obtained:
Type in all cases: in vivo
[1] = tested on: panicum, fall (fall panicum Panicum dichotomiflorum); experiment: Test F pre-/postemergence: panicum, fall
In short: (§1)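 Visual response scores, 0 meaning no effect and 100 complete control, were assigned against untreated controls 14 to 21 days after treatment. Test chemicals in a surfactant-containing non-phytotoxic solvent were applied preemergence to seeded silt loam soil or postemergence to 2–18 cm plants in peat-based medium.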

[2] = tested on: ryegrass, Italian (Italian ryegrass, Lolium multiflorum); experiment: Test F pre-/postemergence: ryegrass, Italian
Description: (§2) Seeds of plant species selected from corn (Zea mays), soybean (Glycine max), velvetleaf (Abutilon theophrasti), lambsquarters (Chenopodium album), poinsettia, wild (wild poinsettia, Euphorbia heterophylla), pigweed, palmer (palmer pigweed, Amaranthus palmeri), waterhemp (common waterhemp, Amaranthus rudis), surinam grass (Brachiaria decumbens), crabgrass, Brazil (Brazilian crabgrass, Digitaria horizontalis), panicum, fall (fall panicum Panicum dichotomiflorum), crabgrass, large (large crabgrass, Digitaria sanguinalis), foxtail, giant (giant foxtail, Setaria faberii), foxtail, green (green foxtail Setaria viridis), goosegrass (Eleusine indica), ragweed (common ragweed, Ambrosia elatior), barnyardgrass (Echinochloa crus-galli), sandbur (southern sandbur, Cenchrus echinatus), arrowleaf sida (Sida rhombifolia), ryegrass, Italian (Italian ryegrass, Lolium multiflorum), dayflower, VA (Virginia (VA) dayflower, Commelina virginica), field bindweed (Convolvulus arvensis), cocklebur (common cocklebur, Xanthium strumarium), morningglory (Ipomoea coccinea), nightshade (eastern black nightshade, Solanum ptycanthum), kochia (Kochia scoparia), nutsedge, yellow (yellow nutsedge, Cyperus esculentus), johnsongrass (Sorghum halepense), smartweed (ladysthumb smartweed, Polygonum persicaria), and beggarticks (hairy beggarticks, Bidens pilosa), were planted into a silt loam soil and treated preemergence with test chemicals formulated in a non-phytotoxic solvent mixture which included a surfactant. At the same time, plants selected from these crop and weed species and also pigweed (Amaranthus retroflexus), waterhemp_RES1 (ALS/Triazine resistant common waterhemp, Amaranthus rudis) and waterhemp_RES2 (ALS/HPPD resistant common waterhemp, Amaranthus rudis) were planted in pots containing a planting medium comprising spaghnum peat moss, vermiculite, wetting agent and starter nutrients treated with postemergence applications of some of the test chemicals formulated in the same manner. Plants ranged in height from 2 to 18 cm for postemergence treatments (1- to 4-leaf stage).
(§3) Treated plants and controls were maintained in a greenhouse for 14 to 21 days, after which time all species were compared to controls and visually evaluated. Plant response ratings, summarized in Table E, are based on a scale of 0 to 100 where 0 is no effect and 100 is complete control. A dash (-) response means no test result.

[3] = tested on: lambsquarters (Chenopodium album); experiment: Test F pre-/postemergence: lambsquarters; conditions: Preemergence
In short: as §1

[4] = tested on: foxtail, giant (giant foxtail, Setaria faberii); experiment: Test F pre-/postemergence: foxtail, giant; conditions: Preemergence
Description: as §2, §3

[5] = tested on: blackgrass (Alopecurus myosuroides); experiment: Test D pre-/postemergence: blackgrass
In short: (§4)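 Visual control ratings (0–100) after 14–21 days, controlled environment. Preemergence on silt loam; postemergence on 2–18 cm plants.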

[6] = tested on: galium (catchweed bedstraw, Galium aparine); experiment: Test D pre-/postemergence: galium; conditions: Postemergence
In short: as §4

[7] = tested on: oilseed rape (Brassica napus); experiment: Test D pre-/postemergence: oilseed rape
In short: as §4

[8] = Preemergence, 16 g ai/ha, scale 0 to 100, 0 no effect, 100 complete control
[9] = Preemergence, 31 g ai/ha, scale 0 to 100, 0 no effect, 100 complete control
[10] = Preemergence, 125 g ai/ha, scale 0 to 100
[11] = Preemergence, 250 g ai/ha, scale 0 to 100
[12] = 16 g ai/ha, scale 0 to 100, 0 no effect, 100 complete control
[13] = 31 g ai/ha, scale 0 to 100, 0 no effect, 100 complete control
[14] = Postemergence, 250 g ai/ha, scale 0 to 100
[15] = Postemergence, 31 g ai/ha, scale 0 to 100
[16] = Postemergence, 125 g ai/ha, scale 0 to 100
[17] = Postemergence, 8 g ai/ha, scale 0 to 100
[18] = Postemergence, 16 g ai/ha, scale 0 to 100
[19] = Postemergence, 62 g ai/ha, scale 0 to 100
[20] = Preemergence, 8 g ai/ha, scale 0 to 100, 0 no effect, 100 complete control
[21] = Postemergence, 31 g ai/ha, scale 0 to 100 (0 no effect, 100 complete control)
[22] = Postemergence, 62 g ai/ha, scale 0 to 100 (0 no effect, 100 complete control)
[23] = Postemergence, 125 g ai/ha, scale 0 to 100, 0 no effect, 100 complete control
[24] = Preemergence, 62 g ai/ha, scale 0 to 100
[25] = 8 g ai/ha, scale 0 to 100, 0 no effect, 100 complete control

Q: What does the source list for `CCc1nn(-c2ccc(F)c(F)c2)nc1Oc1ccnc(C(F)(F)F)c1` [Compound 171]?
A: Plant response rating, Panicum, Fall [1, 8]: 0; Plant response rating, Panicum, Fall [1, 9]: 65; Plant response rating, Panicum, Fall [1, 10]: 100; Plant response rating, Panicum, Fall [1, 11]: 100; Plant response rating, Ryegrass, Italian [2, 8]: 0; Plant response rating, Ryegrass, Italian [2, 9]: 0; Plant response rating, Ryegrass, Italian [2, 10]: 25; Plant response rating, Ryegrass, Italian [2, 11]: 50; Plant response rating, Lambsquarters [3, 12]: 0; Plant response rating, Lambsquarters [3, 13]: 0; Plant response rating, Lambsquarters ([3]; 62 g ai/ha, scale 0 to 100): 35; Plant response rating, Lambsquarters ([3]; 125 g ai/ha, scale 0 to 100): 65; Plant response rating, Lambsquarters ([3]; 250 g ai/ha, scale 0 to 100): 98; Plant response rating, Foxtail, Giant [4, 12]: 40; Plant response rating, Foxtail, Giant [4, 13]: 60; Plant response rating, Foxtail, Giant ([4]; 62 g ai/ha, scale 0 to 100): 100; Plant response rating, Foxtail, Giant ([4]; 125 g ai/ha, scale 0 to 100): 100; Plant response rating, Foxtail, Giant ([4]; 250 g ai/ha, scale 0 to 100): 100

Q: Which “Plant response rating, Panicum, Fall” value [1, 14] does the source give for `CCCc1nn(-c2ccc(F)c(F)c2)nc1Oc1ccnc(C(F)(F)F)c1` [Compound 172] here?
A: 50

Q: What about the “Plant response rating, Panicum, Fall” value [1, 15] of the same compound?
A: 20

Q: And the “Plant response rating, Panicum, Fall” value [1, 16]?
A: 50

Q: What about the “Plant response rating, Panicum, Fall” value [1, 9] of the same compound?
A: 75

Q: And the “Plant response rating, Panicum, Fall” value [1, 10]?
A: 100

Q: And the “Plant response rating, Panicum, Fall” value [1, 11]?
A: 100

Q: And the “Plant response rating, Ryegrass, Italian” value [2, 14]?
A: 50

Q: And the “Plant response rating, Ryegrass, Italian” value [2, 15]?
A: 20

Q: What about the “Plant response rating, Ryegrass, Italian” value [2, 16] of the same compound?
A: 40

Q: And the “Plant response rating, Ryegrass, Italian” value [2, 9]?
A: 35

Q: And the “Plant response rating, Ryegrass, Italian” value [2, 10]?
A: 100

Q: What about the “Plant response rating, Ryegrass, Italian” value [2, 11] of the same compound?
A: 100

Q: And the “Plant response rating, Lambsquarters” value [3, 13]?
A: 50

Q: And the “Plant response rating, Lambsquarters” value ([3]; 125 g ai/ha, scale 0 to 100)?
A: 98

Q: And the “Plant response rating, Lambsquarters” value ([3]; 250 g ai/ha, scale 0 to 100)?
A: 98

Q: What about the “Plant response rating, Foxtail, Giant” value [4, 13] of the same compound?
A: 100

Q: And the “Plant response rating, Foxtail, Giant” value ([4]; 125 g ai/ha, scale 0 to 100)?
A: 100

Q: And the “Plant response rating, Foxtail, Giant” value ([4]; 250 g ai/ha, scale 0 to 100)?
A: 100

Q: Which “Plant response rating, Panicum, Fall” value [1, 17] does the source give for `CCOc1nn(-c2ccc(F)cc2)nc1Cc1ccnc(C(F)(F)F)c1` [Compound 196, 4-[[5-ethoxy-2-(4-fluorophenyl)-2H-1,2,3-triazol-4-yl]methyl]-2-(trifluoromethyl)pyridine] here?
A: 20

Q: And the “Plant response rating, Panicum, Fall” value [1, 18]?
A: 40

Q: And the “Plant response rating, Panicum, Fall” value [1, 15]?
A: 80

Q: What about the “Plant response rating, Panicum, Fall” value [1, 19] of the same compound?
A: 85

Q: And the “Plant response rating, Panicum, Fall” value [1, 16]?
A: 85

Q: And the “Plant response rating, Panicum, Fall” value [1, 20]?
A: 25

Q: What about the “Plant response rating, Panicum, Fall” value [1, 9] of the same compound?
A: 98

Q: What about the “Plant response rating, Panicum, Fall” value [1, 10] of the same compound?
A: 100

Q: What about the “Plant response rating: Blackgrass” value [5, 21] of the same compound?
A: 65

Q: And the “Plant response rating: Blackgrass” value [5, 22]?
A: 85

Q: And the “Plant response rating: Blackgrass” value [5, 23]?
A: 80

Q: What about the “Plant response rating, Blackgrass” value [5, 18] of the same compound?
A: 15

Q: And the “Plant response rating, Blackgrass” value [5, 8]?
A: 10

Q: And the “Plant response rating, Blackgrass” value [5, 9]?
A: 20

Q: What about the “Plant response rating, Blackgrass” value [5, 24] of the same compound?
A: 100

Q: What about the “Plant response rating, Blackgrass” value [5, 10] of the same compound?
A: 100

Q: What about the “Plant response rating: Galium” value ([6]; 31 g ai/ha, scale 0 to 100 (0 no effect, 100 complete control)) of the same compound?
A: 85

Q: What about the “Plant response rating: Galium” value ([6]; 62 g ai/ha, scale 0 to 100 (0 no effect, 100 complete control)) of the same compound?
A: 70

Q: What about the “Plant response rating: Galium” value ([6]; 125 g ai/ha, scale 0 to 100, 0 no effect, 100 complete control) of the same compound?
A: 90

Q: And the “Plant response rating, Galium” value ([6]; 16 g ai/ha, scale 0 to 100)?
A: 70

Q: And the “Plant response rating, Ryegrass, Italian” value [2, 17]?
A: 15

Q: What about the “Plant response rating, Ryegrass, Italian” value [2, 18] of the same compound?
A: 20

Q: What about the “Plant response rating, Ryegrass, Italian” value [2, 15] of the same compound?
A: 40

Q: What about the “Plant response rating, Ryegrass, Italian” value [2, 19] of the same compound?
A: 70

Q: What about the “Plant response rating, Ryegrass, Italian” value [2, 16] of the same compound?
A: 80

Q: What about the “Plant response rating, Ryegrass, Italian” value [2, 20] of the same compound?
A: 0

Q: What about the “Plant response rating, Ryegrass, Italian” value [2, 8] of the same compound?
A: 40

Q: And the “Plant response rating, Ryegrass, Italian” value [2, 9]?
A: 75

Q: And the “Plant response rating, Ryegrass, Italian” value [2, 10]?
A: 100

Q: And the “Plant response rating: Oilseed Rape” value [7, 21]?
A: 100

Q: What about the “Plant response rating: Oilseed Rape” value [7, 22] of the same compound?
A: 100

Q: And the “Plant response rating: Oilseed Rape” value [7, 23]?
A: 100

Q: What about the “Plant response rating, Oilseed Rape” value [7, 18] of the same compound?
A: 80

Q: What about the “Plant response rating, Oilseed Rape” value [7, 8] of the same compound?
A: 5

Q: And the “Plant response rating, Oilseed Rape” value [7, 9]?
A: 15

Q: What about the “Plant response rating, Oilseed Rape” value [7, 24] of the same compound?
A: 100

Q: And the “Plant response rating, Oilseed Rape” value [7, 10]?
A: 100

Q: And the “Plant response rating, Lambsquarters” value [3, 25]?
A: 60

Q: And the “Plant response rating, Lambsquarters” value [3, 12]?
A: 70

Q: What about the “Plant response rating, Lambsquarters” value [3, 13] of the same compound?
A: 80

Q: And the “Plant response rating, Lambsquarters” value ([3]; 62 g ai/ha, scale 0 to 100)?
A: 95

Q: And the “Plant response rating, Lambsquarters” value ([3]; 125 g ai/ha, scale 0 to 100)?
A: 98

Q: And the “Plant response rating, Foxtail, Giant” value [4, 25]?
A: 5

Q: What about the “Plant response rating, Foxtail, Giant” value [4, 12] of the same compound?
A: 85

Q: And the “Plant response rating, Foxtail, Giant” value [4, 13]?
A: 98

Q: And the “Plant response rating, Foxtail, Giant” value ([4]; 62 g ai/ha, scale 0 to 100)?
A: 98

Q: And the “Plant response rating, Foxtail, Giant” value ([4]; 125 g ai/ha, scale 0 to 100)?
A: 100
